Experimental data reported in PubChem BioAssay AID330 (DTP/NCI, 2004).
“And” between values parts separate entries of the source, which are not always exact repeats. Equal values may be shown once. Inconclusive results and toxic doses are left out.

Test system: P388 leukemia ip, CD2F1 mice, survival T/C
Experiment: NCI In Vivo Anticancer Drug Screen. Data for tumor model P388 Leukemia (intraperitoneal) in CD2F1 (CDF1) mice
Conditions: endpoint: median survival time, higher = longer survival
How it was run: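 Mice carrying the transplanted tumor received test compound or vehicle. Survival was recorded in each group, and the value is the treated-group measurement divided by that of the vehicle-treated control group.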

[1] = dose: 100.0 mg/kg/injection, schedule: Q04DX003 (ip), vehicle: saline
[2] = dose: 200.0 mg/kg/injection, schedule: Q04DX003 (ip), vehicle: saline
[3] = dose: 25.0 mg/kg/injection, schedule: Q01DX009 (ip), vehicle: Klucel (hydroxypropylcellulose) (HPC)
[4] = dose: 25.0 mg/kg/injection, schedule: Q01DX009 (ip), vehicle: saline
[5] = dose: 50.0 mg/kg/injection, schedule: Q01DX009 (ip), vehicle: Klucel (hydroxypropylcellulose) (HPC)
[6] = dose: 50.0 mg/kg/injection, schedule: Q01DX009 (ip), vehicle: saline
[7] = dose: 100.0 mg/kg/injection, schedule: Q01DX009 (ip), vehicle: Klucel (hydroxypropylcellulose) (HPC)
[8] = dose: 200.0 mg/kg/injection, schedule: Q01DX009 (ip), vehicle: Klucel (hydroxypropylcellulose) (HPC)
[9] = dose: 100.0 mg/kg/injection, schedule: Q01DX009 (ip), vehicle: saline with Tween-80
[10] = dose: 200.0 mg/kg/injection, schedule: Q01DX009 (ip), vehicle: saline with Tween-80
[11] = dose: 100.0 mg/kg/injection, schedule: Q01DX001 (ip), vehicle: Klucel (hydroxypropylcellulose) (HPC)
[12] = dose: 60.0 mg/kg/injection, schedule: Q01DX005 (ip), vehicle: saline with Tween-80
[13] = dose: 120.0 mg/kg/injection, schedule: Q01DX005 (ip), vehicle: saline with Tween-80
[14] = dose: 240.0 mg/kg/injection, schedule: Q01DX005 (ip), vehicle: saline with Tween-80

O=C(O)CCCc1ccc(N(CCO)CCO)cc1
T/C [1]: 114 % of control
T/C [2]: 109 % of control
T/C (dose: 400.0 mg/kg/injection, schedule: Q04DX003 (ip), vehicle: saline): 103 % of control

CNC(=O)Nc1ccc[nH]c1=O
T/C [3]: 103 % of control and 95 % of control
T/C [4]: 101 % of control
T/C [5]: 90 % of control and 91 % of control
T/C [6]: 99 % of control and 97 % of control
T/C [7]: 105 % of control and 96 % of control
T/C (dose: 100.0 mg/kg/injection, schedule: Q01DX009 (ip), vehicle: saline): 100 % of control and 108 % of control
T/C [8]: 101 % of control and 87 % of control
T/C (dose: 200.0 mg/kg/injection, schedule: Q01DX009 (ip), vehicle: saline): 99 % of control
T/C (dose: 400.0 mg/kg/injection, schedule: Q01DX009 (ip), vehicle: Klucel (hydroxypropylcellulose) (HPC)): 109 % of control and 96 % of control
T/C (dose: 400.0 mg/kg/injection, schedule: Q01DX009 (ip), vehicle: saline): 102 % of control and 109 % of control

N#C/C(=C1/NC(=O)c2ccccc21)c1nc2ccccc2s1
T/C (dose: 50.0 mg/kg/injection, schedule: Q01DX009 (ip), vehicle: saline with Tween-80): 89 % of control
T/C [9]: 90 % of control
T/C [10]: 96 % of control

CCOC(=O)C1=C(O)C[C@]2(O)C3CC=C(C)[C@@H]4CCO[C@](OC)(C[C@H]2C1)[C@]34C(=O)OC (some centres not stated)
T/C (dose: 50.0 mg/kg/injection, schedule: Q01DX005 (ip), vehicle: saline with Tween-80): 100 % of control
T/C (dose: 100.0 mg/kg/injection, schedule: Q01DX005 (ip), vehicle: saline with Tween-80): 96 % of control

CCCCCCCCCCCc1n(Cc2ccccc2)c2ccccc2[n+]1C
T/C (dose: 0.25 mg/kg/injection, schedule: Q01DX009 (ip), vehicle: saline sonified): 104 % of control
T/C (dose: 0.5 mg/kg/injection, schedule: Q01DX009 (ip), vehicle: saline sonified): 109 % of control

CC(C)NCCCNc1c2ccccc2nc2cccc([N+](=O)[O-])c12
T/C (dose: 0.09 mg/kg/injection, schedule: Q01DX009 (ip), vehicle: saline): 100 % of control and 86 % of control
T/C (dose: 0.19 mg/kg/injection, schedule: Q01DX009 (ip), vehicle: saline): 100 % of control and 97 % of control
T/C (dose: 0.39 mg/kg/injection, schedule: Q01DX009 (ip), vehicle: saline): 100 % of control and 106 % of control and 92 % of control
T/C (dose: 0.79 mg/kg/injection, schedule: Q01DX009 (ip), vehicle: saline): 105 % of control and 123 % of control and 90 % of control
T/C (dose: 1.56 mg/kg/injection, schedule: Q01DX009 (ip), vehicle: saline): 109 % of control

C=C1C(=O)OC2C1C(OC(=O)/C(C)=C\C)CC1(CO1)C1C(O)C=C(C)C21O (configuration not stated)
T/C (dose: 25.0 mg/kg/injection, schedule: Q04DX003 (ip), vehicle: saline with Tween-80): 112 % of control
T/C (dose: 50.0 mg/kg/injection, schedule: Q04DX003 (ip), vehicle: saline with Tween-80): 113 % of control

Cc1nnc2sc(/C=C/c3ccccc3)nn12
T/C [11]: 101 % of control
T/C (dose: 200.0 mg/kg/injection, schedule: Q01DX001 (ip), vehicle: Klucel (hydroxypropylcellulose) (HPC)): 102 % of control
T/C (dose: 400.0 mg/kg/injection, schedule: Q01DX001 (ip), vehicle: Klucel (hydroxypropylcellulose) (HPC)): 101 % of control

Cc1c2cc[n+](CCN3CCCCC3)cc2c(C)c2c1[nH]c1ccc(O)cc12
T/C (dose: 1.56 mg/kg/injection, schedule: Q04DX003 (ip), vehicle: suspension in saline): 152 % of control
T/C (dose: 3.12 mg/kg/injection, schedule: Q04DX003 (ip), vehicle: suspension in saline): 152 % of control
T/C (dose: 6.25 mg/kg/injection, schedule: Q04DX003 (ip), vehicle: saline): 178 % of control and 201 % of control
T/C (dose: 12.5 mg/kg/injection, schedule: Q04DX003 (ip), vehicle: saline): 178 % of control
T/C (dose: 12.5 mg/kg/injection, schedule: Q04DX003 (ip), vehicle: suspension in saline): 164 % of control
T/C (dose: 25.0 mg/kg/injection, schedule: Q04DX003 (ip), vehicle: saline): 190 % of control and 194 % of control
T/C (dose: 25.0 mg/kg/injection, schedule: Q04DX003 (ip), vehicle: suspension in saline): 164 % of control
T/C (dose: 50.0 mg/kg/injection, schedule: Q04DX003 (ip), vehicle: saline): 255 % of control
T/C (dose: 50.0 mg/kg/injection, schedule: Q04DX003 (ip), vehicle: suspension in saline): 152 % of control
T/C [1]: 216 % of control
T/C (dose: 100.0 mg/kg/injection, schedule: Q04DX003 (ip), vehicle: suspension in saline): 169 % of control
T/C [2]: 104 % of control
T/C (dose: 200.0 mg/kg/injection, schedule: Q04DX003 (ip), vehicle: suspension in saline): 98 % of control

CCCCCCCC(=O)c1c(O)c2ccccc2oc1=O
T/C (dose: 15.0 mg/kg/injection, schedule: Q01DX005 (ip), vehicle: saline with Tween-80): 102 % of control
T/C (dose: 30.0 mg/kg/injection, schedule: Q01DX005 (ip), vehicle: saline with Tween-80): 105 % of control
T/C [12]: 103 % of control and 96 % of control

Cn1ccc2c3c(ccc21)C(N1CCOCC1)=CS(=O)(=O)O3
T/C (dose: 50.0 mg/kg/injection, schedule: Q01DX005 (ip), vehicle: Klucel (hydroxypropylcellulose) (HPC)): 104 % of control
T/C (dose: 100.0 mg/kg/injection, schedule: Q01DX005 (ip), vehicle: Klucel (hydroxypropylcellulose) (HPC)): 98 % of control
T/C (dose: 200.0 mg/kg/injection, schedule: Q01DX005 (ip), vehicle: Klucel (hydroxypropylcellulose) (HPC)): 100 % of control

Cc1ccc(NC(=S)NC2C(=O)Nc3ccccc32)cc1 (configuration not stated)
T/C (dose: 100.0 mg/kg/injection, schedule: Q01DX001 (ip), vehicle: saline with Tween-80): 92 % of control
T/C (dose: 200.0 mg/kg/injection, schedule: Q01DX001 (ip), vehicle: saline with Tween-80): 93 % of control
T/C (dose: 400.0 mg/kg/injection, schedule: Q01DX001 (ip), vehicle: saline with Tween-80): 87 % of control

O=C1NC(=O)C2=C1CCCC2Br (configuration not stated)
T/C (dose: 3.13 mg/kg/injection, schedule: Q01DX009 (ip), vehicle: distilled water + Tween-80): 99 % of control
T/C (dose: 6.25 mg/kg/injection, schedule: Q01DX009 (ip), vehicle: distilled water + Tween-80): 92 % of control
T/C (dose: 12.5 mg/kg/injection, schedule: Q01DX009 (ip), vehicle: distilled water + Tween-80): 117 % of control

NC1=C(O)C(=O)C(c2cccc3ccccc23)O1 (configuration not stated)
T/C [12]: 98 % of control
T/C [13]: 93 % of control
T/C [14]: 88 % of control

CC1(C(F)(F)F)CC(=O)NN1 (configuration not stated)
T/C [4]: 104 % of control
T/C [6]: 118 % of control

CC(=O)/C=C/c1ccccc1
T/C [3]: 103 % of control
T/C [5]: 101 % of control
T/C [7]: 101 % of control
T/C [9]: 108 % of control
T/C [8]: 103 % of control
T/C [10]: 109 % of control
T/C (dose: 400.0 mg/kg/injection, schedule: Q01DX009 (ip), vehicle: saline with Tween-80): 119 % of control
T/C (dose: 600.0 mg/kg/injection, schedule: Q01DX009 (ip), vehicle: saline with Tween-80): 117 % of control

CCOC(=O)c1cc2nc(C(C)C)n(Cc3ccccc3)c2cc(C(=O)OCC)c1=O
T/C [12]: 103 % of control
T/C [13]: 97 % of control
T/C [14]: 89 % of control

OC(c1ccccc1)(C1CCNCC1)C1CC1 (configuration not stated)
T/C (dose: 12.5 mg/kg/injection, schedule: Q01DX001 (ip), vehicle: saline): 105 % of control
T/C (dose: 25.0 mg/kg/injection, schedule: Q01DX001 (ip), vehicle: saline): 101 % of control and 97 % of control
T/C (dose: 50.0 mg/kg/injection, schedule: Q01DX001 (ip), vehicle: saline): 103 % of control and 106 % of control
T/C [11]: 105 % of control
T/C (dose: 100.0 mg/kg/injection, schedule: Q01DX001 (ip), vehicle: saline): 102 % of control

C=CCC1(C(C)C(O)c2cc(OC)c(OC)c(OC)c2)CC(OC)C=CC1=O (configuration not stated)
T/C (dose: 4.0 mg/kg/injection, schedule: Q01DX009 (ip), vehicle: olive oil, sesame oil, peanut oil): 116 % of control
T/C (dose: 8.0 mg/kg/injection, schedule: Q01DX009 (ip), vehicle: olive oil, sesame oil, peanut oil): 111 % of control
T/C (dose: 16.0 mg/kg/injection, schedule: Q01DX009 (ip), vehicle: olive oil, sesame oil, peanut oil): 111 % of control

O=c1c(N=Nc2ccccc2)c(O)n(-c2ccc(Cl)cc2)c(=S)n1-c1ccc(Br)cc1
T/C (dose: 100.0 mg/kg/injection, schedule: Q04DX002 (ip), vehicle: saline with Tween-80): 102 % of control
T/C (dose: 200.0 mg/kg/injection, schedule: Q04DX002 (ip), vehicle: saline with Tween-80): 103 % of control
T/C (dose: 400.0 mg/kg/injection, schedule: Q04DX002 (ip), vehicle: saline with Tween-80): 94 % of control
